Source: patent publication US12234256B2, “Molecular degraders of extracellular proteins” (priority 2021, dated 2025)

Key:
[1] = system: α-DNP antibody; test: Ternary complex formation between hepatocytes and α-DNP antibody; format: cell-based; conditions: FIG. 6B; competitive binders of ASGPR or α-DNP antibody
[2] = system: α-DNP antibody; test: In vivo serum levels of α-DNP antibody, ELISA; conditions: FIG. 8D; single variable dose; mice
Method: In vivo experiments were performed under Yale University IACUC supervision following protocol entitled “pre-clinical evaluation of small molecule immunomodulators” (Protocol number 2017-11445). Experiments were performed in male nude mice purchased from Jackson Laboratory (NU/J, Stock No. 002019). Compounds were administered i.p. in a volume of 100 μL PBS. Approximately 25 μL of blood was collected at each time point by saphenous bleed. Antibody was administered as 40 μg in 100 μL i.p. Compounds were administered daily at the specified dose throughout the course of experiments. For data analysis, antibody levels were normalized to the recorded concentration of antibody observed in each mouse 24 hours after the i.p. administration.
ELISA analysis of serum samples was performed using MaxiSorp 96 well plates (Thermo, 44-2404-21). Plates were coated with 50 μL of BSA-DNP (Invitrogen, A23018) at 100 ug/mL in PBS and incubated at 4° C. overnight. Coating solution was then removed, and the plates were blocked with 2% BSA in PBS for 2 hours at room temperature, followed by washing twice with PBST (0.2% Tween). Serum samples were diluted in 2% BSA in PBS. […] The plates were then treated with TMB (Thermo 34028) followed by 2 M H2SO4 and analyzed for OD at 450 nm on a plate reader (BioTek Synergy 2). Sample concentrations were determined against a standard curve.

CC(=O)N[C@H]1[C@H](OCCOCCOCCNC(=O)CCOCC(COCCC(=O)NCCOCCOCCO[C@@H]2O[C@H](CO)[C@H](O)[C@H](O)[C@H]2NC(C)=O)(COCCC(=O)NCCOCCOCCO[C@@H]2O[C@H](CO)[C@H](O)[C@H](O)[C@H]2NC(C)=O)NC(=O)CNC(=O)COCCOCCOCCNc2ccc([N+](=O)[O-])cc2[N+](=O)[O-])O[C@H](CO)[C@H](O)[C@@H]1O [D-MoDE-A]
D-MoDE-A-mediated ternary complex formation in presence of competitive binders [1]: inhibited by competitive binders of either ASGPR or α-DNP antibody
serum levels of α-DNP antibody [2]: decrease in serum levels of α-DNP antibody
